Source: patent US11497212B2, “Substituted thiophenyl uracils, salts thereof and the use thereof as herbicidal agents” (Syngenta Crop Protection AG, priority 2017, dated 2022)

Assays:
Format in all cases: in vivo
[1] = test system: Zea mays; assay: Crop compatibility post-emergence (greenhouse pot trial)
Procedure, shortened: (§1)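 Visual % damage vs untreated controls, ~3 wk post-spray (100% = plants died, 0% = as control). Plants in sandy loam, greenhouse, sprayed at one-leaf stage (2–3 wk after sowing); WP/EC in water + 0.5% additive, 600 L/ha.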

[2] = test system: Oryza sativa; assay: as above; conditions: application rate 5 g/ha
Procedure, shortened: as §1

[3] = test system: Hordeum murinum; assay: Herbicidal action post-emergence (greenhouse pot trial); conditions: scored visually after about 3 weeks vs untreated controls
Procedure, shortened: (§2)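 Foliar application post-emergence; water volume 600 L/ha, additive 0.5%, dose ≤80 g/ha. Scoring: visual, ~3 wk, relative to untreated (0–100%).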

[4] = test system: Veronica persica; assay: as above
Procedure, shortened: as §2

[5] = test system: Avena fatua; assay: as above; conditions: application rate 20 g/ha, scored visually after about 3 weeks vs untreated controls
Procedure, shortened: as §2

[6] = test system: Amaranthus retroflexus; assay: as above; conditions: scored visually after about 3 weeks vs untreated controls
Procedure, shortened: as §2

[7] = test system: Viola tricolor; assay: as above
Procedure, shortened: as §2

[8] = test system: Matricaria inodora; assay: as above; conditions: scored visually after about 3 weeks vs untreated controls
Procedure, shortened: as §2

[9] = test system: Pharbitis purpurea; assay: as above
Procedure, shortened: as §2

[10] = test system: Setaria viridis; assay: as above; conditions: scored visually after about 3 weeks vs untreated controls
Procedure, shortened: as §2

[11] = test system: Polygonum convolvulus; assay: as above; conditions: scored visually after about 3 weeks vs untreated controls
Procedure, shortened: as §2

[12] = test system: Stellaria media; assay: as above; conditions: scored visually after about 3 weeks vs untreated controls
Procedure, shortened: as §2

[13] = test system: Abutilon theophrasti; assay: as above; conditions: scored visually after about 3 weeks vs untreated controls
Procedure, shortened: as §2

[14] = test system: Alopecurus myosuroides; assay: as above; conditions: application rate 20 g/ha, scored visually after about 3 weeks vs untreated controls
Procedure, shortened: as §2

[15] = test system: Digitaria sanguinalis; assay: as above; conditions: application rate 20 g/ha
Procedure, shortened: as §2

[16] = test system: Triticum aestivum; assay: Crop compatibility post-emergence (greenhouse pot trial); conditions: application rate 80 g/ha
Procedure, shortened: as §1

[17] = test system: Glycine max; assay: as above; conditions: application rate 20 g/ha
Procedure, shortened: as §1

[18] = test system: Echinochloa crus-galli; assay: Herbicidal action post-emergence (greenhouse pot trial); conditions: scored visually after about 3 weeks vs untreated controls
Procedure, shortened: as §2

[19] = test system: Zea mays; assay: Crop compatibility pre-emergence (greenhouse pot trial); conditions: application rate 80 g/ha, effect vs untreated controls
Procedure, shortened: (§3)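 After soil-surface application of each compound to freshly sown pots (aqueous spray, 600 L/ha, 0.5% additive), plants grew under greenhouse conditions. Around 3 weeks later, injury was estimated visually on a 0–100% scale against controls.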

[20] = test system: Glycine max; assay: as above; conditions: application rate 80 g/ha, effect vs untreated controls
Procedure, shortened: as §3

[21] = test system: Hordeum murinum; assay: Herbicidal action pre-emergence (greenhouse pot trial); conditions: application rate 320 g/ha
Procedure, shortened: (§4)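 In this test the compounds, as suspensions or emulsions in water plus 0.5% additive, are sprayed onto the soil layer covering seeds at 320 g/ha or lower. Scoring happens visually after about three weeks under good greenhouse growth conditions.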

[22] = test system: Veronica persica; assay: as above; conditions: application rate 320 g/ha
Procedure, shortened: as §4

[23] = test system: Avena fatua; assay: as above; conditions: application rate 320 g/ha
Procedure, shortened: as §4

[24] = test system: Cyperus esculentus; assay: as above; conditions: application rate 320 g/ha
Procedure, shortened: as §4

[25] = test system: Amaranthus retroflexus; assay: as above; conditions: application rate 320 g/ha, scored after about 3 weeks
Procedure, shortened: as §4

[26] = test system: Viola tricolor; assay: as above; conditions: application rate 320 g/ha, scored after about 3 weeks
Procedure, shortened: as §4

[27] = test system: Matricaria inodora; assay: as above; conditions: application rate 320 g/ha, scored after about 3 weeks
Procedure, shortened: as §4

[28] = test system: Pharbitis purpurea; assay: as above; conditions: application rate 320 g/ha
Procedure, shortened: as §4

[29] = test system: Setaria viridis; assay: as above; conditions: application rate 320 g/ha, scored after about 3 weeks
Procedure, shortened: as §4

[30] = test system: Lolium rigidum; assay: as above; conditions: application rate 320 g/ha
Procedure, shortened: as §4

[31] = test system: Stellaria media; assay: as above; conditions: application rate 320 g/ha, scored after about 3 weeks
Procedure, shortened: as §4

[32] = test system: Abutilon theophrasti; assay: as above; conditions: application rate 320 g/ha, scored after about 3 weeks
Procedure, shortened: as §4

[33] = test system: Echinochloa crus-galli; assay: as above; conditions: application rate 320 g/ha, scored after about 3 weeks
Procedure, shortened: as §4

[34] = test system: Alopecurus myosuroides; assay: as above; conditions: application rate 320 g/ha, scored after about 3 weeks
Procedure, shortened: as §4

[35] = test system: Lolium rigidum; assay: Herbicidal action post-emergence (greenhouse pot trial); conditions: application rate 20 g/ha, scored visually after about 3 weeks vs untreated controls
Procedure, shortened: as §2

In the case of CC(Sc1cc(-n2c(=O)cc(C(F)(F)F)n(C)c2=O)c(F)cc1Cl)C(=O)OC1COC1 (centres unmarked) [I.1-115], the “Zea mays (Efficacy in %)” value ([1]; application rate 5 g/ha) was 20%, the “Oryza sativa (Efficacy in %)” value [2] was 0% and the “Hordeum murinum (Efficacy in %)” value ([3]; application rate 20 g/ha) was 100%. For the same compound, the “Veronica persica (Efficacy in %)” value ([4]; application rate 20 g/ha) was 100%, the “Avena fatua (Efficacy in %)” value [5] was 80% and the “Amaranthus retroflexus (Efficacy in %)” value ([6]; application rate 20 g/ha) was 100%. The “Viola tricolor (Efficacy in %)” value ([7]; application rate 20 g/ha) was 100%, the “Matricaria inodora (Efficacy in %)” value ([8]; application rate 20 g/ha) was 100% and the “Pharbitis purpurea (Efficacy in %)” value ([9]; application rate 20 g/ha) was 100%. For the same compound, the “Setaria viridis (Efficacy in %)” value ([10]; application rate 20 g/ha) was 100%, the “Polygonum convolvulus (Efficacy in %)” value ([11]; application rate 20 g/ha) was 100% and the “Stellaria media (Efficacy in %)” value ([12]; application rate 20 g/ha) was 100%. The “Abutilon theophrasti (Efficacy in %)” value ([13]; application rate 20 g/ha) was 100%, the “Alopecurus myosuroides (Efficacy in %)” value [14] was 80% and the “Digitaria sanguinalis (Efficacy in %)” value [15] was 100%.

With CC(Sc1cc(-n2c(=O)cc(C(F)(F)F)n(C)c2=O)c(F)cc1Cl)C(=O)OCC1CCCO1 (centres unmarked) [I.1-71] the “Zea mays (Efficacy in %)” value ([1]; application rate 80 g/ha) was 20%, the “Triticum aestivum (Efficacy in %)” value [16] was 20% and the “Oryza sativa (Efficacy in %)” value [2] was 20%. For the same compound, the “Glycine max (Efficacy in %)” value [17] was 20%, the “Hordeum murinum (Efficacy in %)” value ([3]; application rate 80 g/ha) was 80% and the “Veronica persica (Efficacy in %)” value ([4]; application rate 80 g/ha) was 100%. For the same compound, the “Amaranthus retroflexus (Efficacy in %)” value ([6]; application rate 80 g/ha) was 100%, the “Viola tricolor (Efficacy in %)” value ([7]; application rate 80 g/ha) was 100% and the “Matricaria inodora (Efficacy in %)” value ([8]; application rate 80 g/ha) was 100%. For the same compound, the “Pharbitis purpurea (Efficacy in %)” value ([9]; application rate 80 g/ha) was 100%, the “Setaria viridis (Efficacy in %)” value ([10]; application rate 80 g/ha) was 100% and the “Polygonum convolvulus (Efficacy in %)” value ([11]; application rate 80 g/ha) was 100%. The “Stellaria media (Efficacy in %)” value ([12]; application rate 80 g/ha) was 100%, the “Abutilon theophrasti (Efficacy in %)” value ([13]; application rate 80 g/ha) was 100% and the “Echinochloa crus-galli (Efficacy in %)” value ([18]; application rate 80 g/ha) was 100%. For the same compound, the “Zea mays (Efficacy in %)” value [19] was 0%, the “Glycine max (Efficacy in %)” value [20] was 0% and the “Hordeum murinum (Efficacy in %)” value [21] was 90%. The “Veronica persica (Efficacy in %)” value [22] was 100%, the “Avena fatua (Efficacy in %)” value [23] was 90% and the “Cyperus esculentus (Efficacy in %)” value [24] was 80%. For the same compound, the “Amaranthus retroflexus (Efficacy in %)” value [25] was 100%, the “Viola tricolor (Efficacy in %)” value [26] was 100% and the “Matricaria inodora (Efficacy in %)” value [27] was 100%. The “Pharbitis purpurea (Efficacy in %)” value [28] was 100%, the “Setaria viridis (Efficacy in %)” value [29] was 100% and the “Lolium rigidum (Efficacy in %)” value [30] was 90%. For the same compound, the “Stellaria media (Efficacy in %)” value [31] was 100%, the “Abutilon theophrasti (Efficacy in %)” value [32] was 100% and the “Echinochloa crus-galli (Efficacy in %)” value [33] was 100%. The “Alopecurus myosuroides (Efficacy in %)” value [34] was 100%.

CC(Sc1cc(-n2c(=O)cc(C(F)(F)F)n(C)c2=O)c(F)cc1Cl)C(=O)OC1CCOC1 (centres unmarked) [I.1-121] was tested, and the “Hordeum murinum (Efficacy in %)” value ([3]; application rate 20 g/ha) was 80%, the “Veronica persica (Efficacy in %)” value ([4]; application rate 20 g/ha) was 100% and the “Avena fatua (Efficacy in %)” value [5] was 80%. For the same compound, the “Amaranthus retroflexus (Efficacy in %)” value ([6]; application rate 20 g/ha) was 100%, the “Matricaria inodora (Efficacy in %)” value ([8]; application rate 20 g/ha) was 100% and the “Pharbitis purpurea (Efficacy in %)” value ([9]; application rate 20 g/ha) was 100%. For the same compound, the “Setaria viridis (Efficacy in %)” value ([10]; application rate 20 g/ha) was 100%, the “Polygonum convolvulus (Efficacy in %)” value ([11]; application rate 20 g/ha) was 100% and the “Lolium rigidum (Efficacy in %)” value [35] was 80%. The “Stellaria media (Efficacy in %)” value ([12]; application rate 20 g/ha) was 100%, the “Abutilon theophrasti (Efficacy in %)” value ([13]; application rate 20 g/ha) was 100% and the “Echinochloa crus-galli (Efficacy in %)” value ([18]; application rate 20 g/ha) was 100%. For the same compound, the “Digitaria sanguinalis (Efficacy in %)” value [15] was 100%.
